Experimental findings from paper PMC8508980, “Design, Synthesis and Anticancer Profile of New 4-(1H-benzo[d]imidazol-1-yl)pyrimidin-2-amine-Linked Sulfonamide Derivatives with V600EBRAF Inhibitory Effect” (International Journal of Molecular Sciences, 2021) are described below.

The test system of assay [1] is MDA-MB-468. The assay can be described thus: NCI 60 cell line screen. The class given is cell-based, human. To be noted: Homo sapiens; MDA-MB-468, Breast Cancer; read-out: Percent growth. The method, then:
(§1) Anticancer profiling over a panel of 60 cancer cell lines was carried out at the National Cancer Institute (NCI), Bethesda, Maryland, USA, https://dtp.cancer.gov/discovery_development/nci-60/methodology.htm (Last visit 22 September 2021), using the standard procedure (detailed procedure is located in the Supplementary Information page 50 s).
(§2) NCI standard procedure for 60 cell lines assay
(§3) The human tumor cell lines of the cancer screening panel are grown in RPMI 1640 mediu m containing 5% fetal bovine serum and 2 mM L-glutamine. For a typical screening experiment, cells are inoculated into 96 well microtiter plates in 100 μL at plating densities ranging from 5,000 to 40,000 cells/well depending on the doubling time of individual cell lines. After cell inoculation, the microtiter plates are incubated at 37° C, 5 % CO2, 95 % air and 100 % relative humidity for 24 h prior to addition of experimental drugs.
(§4) After 24 h, two plates of each cell line are fixed in situ with TCA, to represent a measurement of the cell population for each cell line at the time of drug addition (Tz). Experimental drugs are solubilized in dimethyl sulfoxide at 400-fold the desired final maximum test concentration (10 µM) and stored frozen prior to use. At the time of drug addition, an aliquot of frozen concentrate is thawed and diluted to twice the desired final maximum test concentration with co mp lete medium containing 50 μg/ml gentamicin. Additional four, 10-fold or ½ log serial dilutions are made to provide a total of five drug concentrations plus control. Aliquots of 100 μl of these different drug dilutions are added to the appropriate microtiter wells already containing 100 μl of medium, resulting in the required final drug concentrations.
(§5) Following drug addition, the plates are incubated for an additional 48 h at 37°C, 5 % CO2, 95 % air, and 100 % relative humidity. For adherent cells, the assay is terminated by the addition of cold TCA. Cells are fixed in situ by the gentle addition of 50 μl of cold 50 % (w/v) TCA (final concentration, 10 % TCA) and incubated for 60 minutes at 4°C. The supernatant is discarded, and the plates are washed five times with tap water and air dried. Sulforhodamine B (SRB) solution (100 μl) at 0.4 % (w/v) in 1 % acetic acid is added to each well, and plates are incubated for 10 minutes at room temperature. After staining, unbound dye is removed by washing five times with 1 % acetic acid and the plates are air dried. Bound stain is subsequently solubilized with 10 mM trizma base, and the absorbance is read on an automated plate reader at a wavelength of 515 nm. For suspension cells, the methodology is the same except that the assay is terminated by fixing settled cells at the bottom of the wells by g ently adding 50 μl of 80 % TCA (final concentration, 16 % TCA). Using the seven absorbance measurements [time zero, (Tz), control growth, (C), and test growth in the presence of drug at the five concentration levels (Ti)], the percentage growth is calculated at each of the drug concentrations levels. Percentage growth inhibition is calculated as:
(§6) [(Ti-Tz)/(C-Tz)] x 100 for concentrations for which Ti>/=Tz
(§7) [(Ti-Tz)/Tz] x 100 for concentrations for which Ti<Tz.
(§8) Three dose response parameters are calculated for each experimental agent. Growth inhibition of […]
(§9) resulting in a 50% reduction in the net protein increase (as measured by SRB staining) in control cells during the drug incubation. The drug concentration resulting in total growth inhibition […]
(§10) (TGI) is calculated from Ti = Tz.

In assay [2] the test system is SR. The assay can be described thus: NCI 60 cell line screen. In kind it is cell-based, human. The conditions noted are these: Homo sapiens, Leukemia, read-out: Percent growth. The method, then:
as §1, §2, §3, §4, §5, §6, §7, §8, §9, §10

In assay [3] the test system is K-562. The assay can be described thus: NCI 60 cell line screen. The class given is cell-based, human. The conditions noted are these: for activity at 10 µM: Homo sapiens, K562, K-562, Leukemia, read-out: Percent growth. The method, then:
as §1, §2, §3, §4, §5, §6, §7, §8, §9, §10

The subject of assay [4] is SF-295. The assay can be described thus: NCI 60 cell line screen. The class given is cell-based, human. The conditions noted are these: Homo sapiens; SF-295, CNS-Cancer; read-out: Percent growth. Here is the method:
as §1, §2, §3, §4, §5, §6, §7, §8, §9, §10

In assay [5] the test system is NCI-H23. The assay can be described thus: NCI 60 cell line screen. The class given is cell-based, human. The conditions noted are these: Homo sapiens; NCI-H23, Non-Small Cell Lung Cancer; read-out: Percent growth. The method, then: as §1, §2, §3, §4, §5, §6, §7, §8, §9, §10
For assay [6], the system named is HOP-92. The assay can be described thus: NCI 60 cell line screen. In kind it is cell-based, human. To be noted: for activity at 10 µM: Homo sapiens, HOP-92, Non-Small Cell Lung Cancer, read-out: Percent growth. Here is the method: as §1, §2, §3, §4, §5, §6, §7, §8, §9, §10
Assay [7] relates to EKVX. The assay can be described thus: NCI 60 cell line screen. The class given is cell-based, human. To be noted: Homo sapiens, Non-Small Cell Lung Cancer, read-out: Percent growth. The method, then: as §1, §2, §3, §4, §5, §6, §7, §8, §9, §10
Assay [8] relates to U251. The assay can be described thus: NCI 60 cell line screen. The class given is cell-based, human. To be noted: Homo sapiens, U-251; U251, CNS-Cancer; read-out: Percent growth. The method, then:
as §1, §2, §3, §4, §5, §6, §7, §8, §9, §10

For assay [9], the system named is RXF 393. The assay can be described thus: NCI 60 cell line screen. To be noted: for activity at 10 µM: Homo sapiens, RXF 393, Renal Cancer, read-out: Percent growth. In kind it is cell-based, human. The method, then:
as §1, §2, §3, §4, §5, §6, §7, §8, §9, §10

For assay [10], the system named is NCI-H226. The assay can be described thus: NCI 60 cell line screen. In kind it is cell-based, human. To be noted: for activity at 10 µM: Homo sapiens, NCI-H226, Non-Small Cell Lung Cancer, read-out: Percent growth. Here is the method:
as §1, §2, §3, §4, §5, §6, §7, §8, §9, §10

The subject of assay [11] is NCI/ADR-RES. The assay can be described thus: NCI 60 cell line screen. In kind it is cell-based, human. To be noted: Homo sapiens, Ovarian Cancer, read-out: Percent growth. The method, then: as §1, §2, §3, §4, §5, §6, §7, §8, §9, §10
For assay [12], the system named is NCI-H522. The assay can be described thus: NCI 60 cell line screen. The class given is cell-based, human. To be noted: Homo sapiens; NCI-H522, Non-Small Cell Lung Cancer; read-out: Percent growth. The method, then:
as §1, §2, §3, §4, §5, §6, §7, §8, §9, §10

Assay [13] has as its system SK-MEL-5. The assay can be described thus: NCI 60 cell line screen. The class given is cell-based, human. The conditions noted are these: for activity at 10 µM: Homo sapiens, SK-MEL-5, Melanoma, read-out: Percent growth; for percent inhibition: SK-MEL-5, NCI-60 heat map analysis. The method, then:
as §1, §2, §3, §4, §5, §6, §7, §8, §9, §10

Assay [14] addresses T1, BRAF (wild-type) (Homo sapiens, UniProt P15056).
T1 construct: purchased Reaction Biology Corp. (Kinase HotSpot service)
The assay can be described thus: Reaction Biology kinase HotSpot enzyme assay. In kind it is biochemical. The conditions noted are these: 1 µM ATP; mean ± S.D. of two separate experiments. Here is the method:
The enzymatic assays were performed in Reaction Biology Corp. using the standard protocol at 1 µM ATP and threefold dilution factor (detailed procedure is found in the Supplementary Information page 52 s).
(§11) Reaction Biology Corp. Kinase HotSpotTM service http://www.reactionbiology.com was used for screening of compounds IC50 Proﬁler Express for IC50 measurement. Assay protocol: In a ﬁnal reaction volume of 25 μL, kinase (5–10 mU) is incubated with 25 mM Tris pH 7.5, 0.02 mM EGTA, 0.66 mg/mL myelin basic protein, 10 mM magnesium acetate and [γ33P-ATP] (speciﬁc activity approx. 500 cpm/pmol, concentration as required). The reaction is initiated by the addition of the Mg-ATP mix. After incubation for 40 min at room temperature, the reaction is stopped by the addition of 5 μL of a 3% phosphoric acid solution. 10 μL of the reaction is then spotted onto a P30 ﬁltermat, and washed three times for 5 min in 75 mM phosphoric acid and once in methanol prior to drying and scintillation counting.

For assay [15], the target named is CRAF (Homo sapiens, UniProt P04049). The assay can be described thus: Reaction Biology kinase HotSpot enzyme assay. In kind it is biochemical. To be noted: 1 µM ATP, mean ± S.D. of two separate experiments. Here is the method: as §11
Chain of CRAF (P04049 whole entry): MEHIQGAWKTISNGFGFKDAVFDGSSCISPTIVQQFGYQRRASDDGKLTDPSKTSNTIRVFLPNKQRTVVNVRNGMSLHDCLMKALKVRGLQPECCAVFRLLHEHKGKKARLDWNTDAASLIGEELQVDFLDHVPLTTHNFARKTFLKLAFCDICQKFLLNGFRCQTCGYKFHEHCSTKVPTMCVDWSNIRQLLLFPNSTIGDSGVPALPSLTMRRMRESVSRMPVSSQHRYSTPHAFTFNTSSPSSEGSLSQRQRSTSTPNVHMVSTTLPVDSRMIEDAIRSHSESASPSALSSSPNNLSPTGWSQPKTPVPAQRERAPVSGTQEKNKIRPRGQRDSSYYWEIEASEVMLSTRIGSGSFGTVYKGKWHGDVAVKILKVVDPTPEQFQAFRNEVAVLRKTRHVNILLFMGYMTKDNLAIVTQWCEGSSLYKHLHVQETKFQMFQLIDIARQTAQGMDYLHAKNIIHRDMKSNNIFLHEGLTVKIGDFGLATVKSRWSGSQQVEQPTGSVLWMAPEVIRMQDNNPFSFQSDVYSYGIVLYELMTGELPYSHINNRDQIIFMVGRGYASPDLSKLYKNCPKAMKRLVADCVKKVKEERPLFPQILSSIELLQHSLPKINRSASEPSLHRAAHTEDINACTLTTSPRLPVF

The structures appear in SMILES notation. Where two headings read alike, the source gives them in different places.

T1 sequence (P15056 whole entry): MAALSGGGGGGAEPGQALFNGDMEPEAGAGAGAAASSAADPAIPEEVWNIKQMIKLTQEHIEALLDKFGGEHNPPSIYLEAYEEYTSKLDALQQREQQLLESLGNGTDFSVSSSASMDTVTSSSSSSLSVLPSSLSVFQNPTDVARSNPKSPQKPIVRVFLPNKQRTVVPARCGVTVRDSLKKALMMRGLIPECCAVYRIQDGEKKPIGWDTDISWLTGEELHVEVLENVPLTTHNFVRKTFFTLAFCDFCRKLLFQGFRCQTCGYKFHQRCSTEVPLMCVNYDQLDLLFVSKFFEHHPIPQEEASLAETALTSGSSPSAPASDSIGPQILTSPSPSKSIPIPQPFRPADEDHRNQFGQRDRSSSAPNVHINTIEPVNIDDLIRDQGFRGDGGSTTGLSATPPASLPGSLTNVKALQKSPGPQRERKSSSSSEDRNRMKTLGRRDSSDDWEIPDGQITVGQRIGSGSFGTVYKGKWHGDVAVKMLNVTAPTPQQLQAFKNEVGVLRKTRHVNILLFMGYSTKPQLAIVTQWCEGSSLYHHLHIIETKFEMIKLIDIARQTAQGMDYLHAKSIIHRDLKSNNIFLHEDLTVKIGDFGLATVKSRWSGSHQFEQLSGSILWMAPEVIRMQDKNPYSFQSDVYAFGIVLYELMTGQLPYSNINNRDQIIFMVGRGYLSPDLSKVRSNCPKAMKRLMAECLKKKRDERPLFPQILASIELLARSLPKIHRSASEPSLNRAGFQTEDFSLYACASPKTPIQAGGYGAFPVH

Take `O=S(=O)(NCCCNc1nccc(-n2cnc3ccccc32)n1)c1ccc(C(F)(F)F)cc1` [12l, N-(3-((4-(1H-benzo [d]imidazol-1-yl)pyrimidin-2-yl)amino)propyl)-4-(trifluoromethyl) benzenesulfonamide]: the activity at 10 µM in assay [1] was determined as 52.7%; in assay [2] it was 58%; in assay [3] it was 33.9%; in assay [4] it was 69.8%; in assay [5], 82.5%; in assay [6], 56%. For the same molecule, the activity at 10 µM came out at 58.1% in [7]; 73.2% in assay [8]; 43.8% in [9]; 57.6% in [10]; 55.8% in assay [11]; 66.9% in assay [12]. Besides, the activity at 10 µM in assay [13] was 29.9%. Moreover, the percent inhibition entry is “around 40%” in assay [6] (HOP-92, NCI-60 heat map analysis); 57% in assay [9] (RXF 393, NCI-60 heat map analysis); “around 40%” in assay [10] (NCI-H226, NCI-60 heat map analysis); 70% in assay [13]. Besides, the IC50 is 940 ± 65 nM in assay [14] and 840 ± 76 nM in assay [15] (read-out: IC50 CRAF).
In the case of `COc1ccc(S(=O)(=O)NCCCNc2nccc(-n3cnc4ccccc43)n2)cc1` [12m, N-(3-((4-(1H-benzo [d]imidazol-1-yl)pyrimidin-2-yl)amino)propyl)-4-methoxy benzenesulfonamide], the activity at 10 µM came to 77.2% in assay [1]; 77.6% in assay [2]; 78.8% in assay [3]; 90.5% in assay [4]; 91.9% in assay [5]; 75.8% in [6]. Moreover, the activity at 10 µM in [7] came to 84.4%; in [8] it was 94.5%; in [9] it was 80.6%; in assay [10], 73.2%; in [11], 105%; in [12], 81.1%. The activity at 10 µM in assay [13] was found to be 70.1%. Also, the concentration for half-maximal inhibition (IC50) came out at 1460 ± 86 nM in [14] and 960 ± 79 nM in assay [15] (read-out: IC50 CRAF).
For `O=S(=O)(NCCCNc1nccc(-n2cnc3ccccc32)n1)c1cccc2ccccc12` [12n, N-(3-((4-(1H-benzo [d]imidazol-1-yl)pyrimidin-2-yl)amino)propyl)naphthalene-1-sulfonamide], the activity at 10 µM in assay [1] was determined as 76.2%; in [2] it was 75.4%; in [3], 67.6%; in [4] it was 81.2%; in assay [5], 91.3%; in assay [6], 80.2%. The activity at 10 µM was 75.1% in assay [7]; 90.8% in [8]; 105% in assay [9]; 77.8% in [10]; 81.1% in [11]; 70% in assay [12]. Also, the activity at 10 µM in [13] turned out to be 58.8%. The percent inhibition entry was “around 30%” in assay [3] (K-562, NCI-60 heat map analysis) and 40% in assay [13]. Also, the IC50 was determined as 3540 ± 175 nM in assay [14] and 1780 ± 156 nM in [15] (IC50 CRAF).
